Key:
[1] = system: PS2.M (DNA, G4) GTGGGTAGGGCGGGTTGG; assay: ligand fluorescence titration; settings: 100 mM KCl; 10 mM Tris-HCl, pH 7.6; no CDHP
[2] = system: Malachite green (MG) aptamer (RNA, aptamer) GGAUCCCGACUGGCGAGAGCCAGGUAACGAAUGGAUCC; assay: fluorescence spectrum; settings: 100 mM KCl, 5 mM MgCl2; 10 mM HEPES, pH 7.4; 1 μM CV; also in 2 M CDHP
[3] = system: Malachite green (MG) aptamer (RNA, aptamer) GGAUCCCGACUGGCGAGAGCCAGGUAACGAAUGGAUCC; assay: fluorescence light-up titration of MG; settings: 100 mM KCl, 5 mM MgCl2; 10 mM Na-HEPES, pH 7.4; 100 nM aptamer; no CDHP
[4] = system: Scrambled MG aptamer (RNA, other) ACCGUUGCCGGACGAGACUGAUACGCGGAAGUCGCAAG; assay: fluorescence spectrum; settings: 100 nM scrambled RNA
[5] = system: Cortisol aptamer (DNA, aptamer) CTCTTGGGACGACGCCCGCATGTTCCATGGATAGTCTTGACTAGTCGTCCC; assay: aptasensor strand-displacement fluorescence (FAM/BHQ1); settings: aqueous buffer and 2 M CDHP; 3'-FAM signaling strand GTCGTCCCAAGAG hybridized; 1-10 ng/ml cortisol
[6] = system: ATP aptamer (DNA, aptamer) AATTCTGGGGGAGCCTTTTGTGGGTAGGGCGGGTTGGTTTTGCCCCGGAGGAGGAATT; assay: structure-switching FAM/BHQ1 fluorescence quenching; settings: 300 mM NaCl, 5 mM MgCl2, 20 mM Tris-HCl, pH 7.4; for binding: 2 M CDHP, AD-13 hybridized, 1 mM nucleotide tested

CCc1c(C)c2cc3nc(cc4nc(cc5c(CC)c(C)c(cc1[nH]2)n5C)C(C)=C4CCC(=O)O)C(CCC(=O)O)=C3C
Kd [1]: 520.6 nM

CN(C)c1ccc(C(=C2C=CC(=[N+](C)C)C=C2)c2ccc(N(C)C)cc2)cc1
binding [2]: no

CN(C)c1ccc(C(=C2C=CC(=[N+](C)C)C=C2)c2ccccc2)cc1
Kd [3]: 257.3 nM | binding [4]: no

C[C@]12CCC(=O)C=C1CC[C@@H]1[C@@H]2[C@@H](O)C[C@@]2(C)[C@H]1CC[C@]2(O)C(=O)CO
binding [5]: yes

Cc1ccc2c(c1)sc(-c1ccc(N(C)C)cc1)[n+]2C
Kd [1]: 1444.7 nM

Nc1ccn([C@@H]2O[C@H](COP(=O)(O)OP(=O)(O)OP(=O)(O)O)[C@@H](O)[C@H]2O)c(=O)n1
binding [6]: no

Nc1nc2c(ncn2[C@@H]2O[C@H](COP(=O)(O)OP(=O)(O)OP(=O)(O)O)[C@@H](O)[C@H]2O)c(=O)[nH]1
binding [6]: no

Nc1ncnc2c1ncn2[C@@H]1O[C@H](COP(=O)(O)OP(=O)(O)OP(=O)(O)O)[C@@H](O)[C@H]1O
EC50 ([6]; antisense DNA AD-13 displaced, no CDHP): 384000 nM

O=c1ccn([C@@H]2O[C@H](COP(=O)(O)OP(=O)(O)OP(=O)(O)O)[C@@H](O)[C@H]2O)c(=O)[nH]1
binding [6]: no

From publication PMC10783497 (2023)
